Measured values: patent publication US8759333B2, “Di-azetidinyl diamide as monoacylglycerol lipase inhibitors” (Janssen Pharmaceutica, NV, priority 2010, dated 2014)
Substitutions are numbered along the chain they refer to.

Legend:
[1] = biological target: T1, MGL (Rattus norvegicus, UniProt Q8R431); test: 2-AG Accumulation Assay in rat brain homogenate; assay type: biochemical; conditions: percent of vehicle; for activity at 10 µM: compound @10 µM, read-out: Rat Brain 2AG % VehCntrl (%) @10 µM; for activity at 1 µM: compound @1 µM, read-out: Rat Brain 2AG % VehCntrl (%) @1 µM
T1 construct: one g rat brain was homogenized using a Polytron homogenizer; from tissue; host or cells: rat brain homogenate
T1 sequence (Q8R431 1-303): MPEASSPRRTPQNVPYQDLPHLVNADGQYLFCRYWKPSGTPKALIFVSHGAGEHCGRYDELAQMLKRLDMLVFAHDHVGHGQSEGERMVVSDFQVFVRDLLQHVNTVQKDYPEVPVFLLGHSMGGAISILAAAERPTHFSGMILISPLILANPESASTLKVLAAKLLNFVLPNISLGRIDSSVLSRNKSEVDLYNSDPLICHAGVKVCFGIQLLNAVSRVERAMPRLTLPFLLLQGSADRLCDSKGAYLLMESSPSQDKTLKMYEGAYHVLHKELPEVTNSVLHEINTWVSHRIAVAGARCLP

[2] = biological target: T2, mutant MGL (mut-MGLL 11-313 L179S L186S) (Homo sapiens, UniProt Q99685, L169S/L176S); test: MGL Enzyme Activity Assay, purified mutant MGL, 4MU-B substrate; assay type: biochemical; conditions: mutant MGL 5 nM, 4MU-B 10 μM, 37° C.; read-out: MGL mutant inh IC50
T2 construct: purified mutant MGL (mut-MGLL 11-313 L179S L186S)
T2 sequence (Q99685 1-303 L169S/L176S): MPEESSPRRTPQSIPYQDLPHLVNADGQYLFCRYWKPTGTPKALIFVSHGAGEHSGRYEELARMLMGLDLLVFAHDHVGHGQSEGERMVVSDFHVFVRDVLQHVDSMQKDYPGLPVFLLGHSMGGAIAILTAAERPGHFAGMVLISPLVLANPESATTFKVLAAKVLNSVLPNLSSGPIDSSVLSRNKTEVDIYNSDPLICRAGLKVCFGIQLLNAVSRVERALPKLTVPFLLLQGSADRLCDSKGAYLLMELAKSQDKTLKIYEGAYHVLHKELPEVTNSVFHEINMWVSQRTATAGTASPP
In short: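 Purified mutant MGL (5 nM final) with 10 μM 4MU-B in 20 mM PIPES pH 7.0, 150 mM NaCl, 0.001% Tween 20; compounds 17 to 0.0003 μM final. Fluorescence (ex 335/em 440 nm) followed 5 min at 37 °C; IC50 from fit of fractional activity versus inhibitor concentration.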

[3] = biological target: T3, wild type MGL (wt-MGLL 6H-11-313) (Homo sapiens, UniProt Q99685); test: MGL Enzyme Activity Assay, purified wild type MGL, 4MU-B substrate; assay type: biochemical; conditions: wild type MGL 5 nM, 4MU-B 10 μM, 37° C.; read-out: MGL wild type inh IC50
T3 construct: purified wild type MGL (wt-MGLL 6H-11-313); 6H (hexahistidine) (N)
T3 sequence (Q99685 1-303): T2 sequence (Q99685 1-303 L169S/L176S) with S169L, S176L
Protocol: All rate-based assays were performed in black 384-well polypropylene PCR microplates (Abgene) in a total volume of 30 μL. […] Final compound concentrations ranged from 17 to 0.0003 μM.
The IC50 values for the following compounds were determined using Microsoft Office Excel from a fit of the equation to the concentration-response plot of the fractional activity as a function of inhibitor concentration.

[4] = biological target: T4, mutant MGL (Homo sapiens, UniProt Q99685, L169S/L176S); test: MGL ThermoFluor Assay - Mutant; assay type: binding; conditions: 0.07 mg/ml mutant MGL, 100 μM ANS, pH 7.0
T4 construct: purified mutant MGL (mut-MGLL 11-313 L179S L186S)
T4 sequence (Q99685 1-303 L169S/L176S): T2 sequence (Q99685 1-303 L169S/L176S)
Protocol: The ThermoFluor (TF) assay is a 384-well plate-based binding assay that measures thermal stability of proteins^1,2. The experiments were carried out using instruments available from Johnson & Johnson Pharmaceutical Research & Development, LLC. TF dye used in all experiments was 1,8-ANS (Invitrogen: A-47). Final TF assay conditions used for MGL studies were 0.07 mg/ml of mutant MGL, 100 μM ANS, 200 mM NaCl, 0.001% Tween-20 in 50 mM PIPES (pH=7.0).
Screening compound plates contained 100% DMSO compound solutions at a single concentration. […] Columns 12 and 24 were used as DMSO reference and contained no compound. […] Following compound dispension, protein and dye solutions were added to achieve the final assay volume of 3 μL.
Bar-coded assay plates were robotically loaded onto a thermostatically controlled PCR-type thermal block and then heated from 40 to 90° C. degrees at a ramp-rate of 1° C./min for all experiments. Fluorescence was measured by continuous illumination with UV light (Hamamatsu LC6), supplied via fiber optics and filtered through a band-pass filter (380-400 nm; >60D cutoff). Fluorescence emission of the entire 384-well plate was detected by measuring light intensity using a CCD camera (Sensys, Roper Scientific) filtered to detect 500±25 nm, resulting in simultaneous and independent readings of all 384 wells. A single image with 20-sec exposure time was collected at each temperature, and the sum of the pixel intensity in a given area of the assay plate was recorded vs temperature and fit to standard equations to yield the Tm^1. • 1.
The Kd values for certain compounds of Formula (I) were determined from a fit of the equation to the concentration-response plot of the fractional activity as a function of […]. For some experiments, quantitative NMR spectroscopy (qNMR) was used to measure concentration of the initial 100% DMSO compound solutions and, using the same fitting method, qKd values were determined.

SMILES	activity at 10 µM [1] [%]	IC50 [2] [nM]	IC50 [3] [nM]	Kd [4] [nM]	activity at 1 µM [1] [%]
O=C(NC1CN(C2CN(C(=O)c3ccc(Cc4ccccc4)cc3)C2)C1)c1nccs1 [Cpd 10, N-{1′-[(4-Benzylphenyl)carbonyl]-1,3′-biazetidin-3-yl}-1,3-thiazole-2-carboxamide]	659	15	70		
O=C(NC1CN(C2CN(C(=O)c3ccc(Cc4ccc(C(F)(F)F)cc4)cc3)C2)C1)c1nccs1 [Cpd 16, N-[1′-({4-[4-(Trifluoromethyl)benzyl]phenyl}carbonyl)-1,3′-biazetidin-3-yl]-1,3-thiazole-2-carboxamide]	123	32	< 5		
CN(C(=O)c1cscn1)C1CN(C2CN(C(=O)c3cc4ccc(C(F)(F)F)cc4s3)C2)C1 [Cpd 48, N-Methyl-N-(1′-{[6-(trifluoromethyl)-1-benzothiophen-2-yl]carbonyl}-1,3′-biazetidin-3-yl)-1,3-thiazole-4-carboxamide]		8120	12900	> 31000	
O=C(NC1CN(C2CN(C(=O)c3ccc4c(ccn4-c4ccc(F)c(F)c4)c3)C2)C1)c1cscn1 [Cpd 54, N-(1′-{[1-(3,4-Difluorophenyl)-1H-indol-5-yl]carbonyl}-1,3′-biazetidin-3-yl)-1,3-thiazole-4-carboxamide]			5		315
O=C(NC1CN(C2CN(C(=O)c3ccc4c(ccn4-c4ccc(F)cc4F)c3)C2)C1)c1nccs1 [Cpd 55, N-(1′-{[1-(2,4-Difluorophenyl)-1H-indol-5-yl]carbonyl}-1,3′-biazetidin-3-yl)-1,3-thiazole-2-carboxamide]			5		353
O=C(NC1CN(C2CN(C(=O)c3ccc4c(ccn4-c4ccc(F)c(F)c4)c3)C2)C1)c1nccs1 [Cpd 57, N-(1′-{[1-(3,4-Difluorophenyl)-1H-indol-5-yl]carbonyl}-1,3′-biazetidin-3-yl)-1,3-thiazole-2-carboxamide]			7		424
Cc1cc(-c2cccc(C(F)(F)F)c2)ccc1C(=O)N1CC(N2CC(NC(=O)c3nccs3)C2)C1 [Cpd 58, N-(1′-{[3-Methyl-3′-(trifluoromethyl)biphenyl-4-yl]carbonyl}-1,3′-biazetidin-3-yl)-1,3-thiazole-2-carboxamide]			8	66.6	157
O=C(NC1CN(C2CN(C(=O)c3ccc(-c4ccc(C(F)(F)F)cc4)cc3F)C2)C1)c1nccs1 [Cpd 59, N-(1′-{[3-Fluoro-4′-(trifluoromethyl)biphenyl-4-yl]carbonyl}-1,3′-biazetidin-3-yl)-1,3-thiazole-2-carboxamide]			10		265
O=C(NC1CN(C2CN(C(=O)c3ccc4c(ccn4-c4ccc(F)cc4F)c3)C2)C1)c1cscn1 [Cpd 60, N-(1′-{[1-(2,4-Difluorophenyl)-1H-indol-5-yl]carbonyl}-1,3′-biazetidin-3-yl)-1,3-thiazole-4-carboxamide]			11		273
Cc1cn(-c2ccc(F)cc2)c2ccc(C(=O)N3CC(N4CC(NC(=O)c5nccs5)C4)C3)cc12 [Cpd 62, N-(1′-{[1-(4-Fluorophenyl)-3-methyl-1H-indol-5-yl]carbonyl}-1,3′-biazetidin-3-yl)-1,3-thiazole-2-carboxamide]			15		334
Cc1cc(-c2ccc(C(F)(F)F)cc2)ccc1C(=O)N1CC(N2CC(NC(=O)c3nccs3)C2)C1 [Cpd 63, N-(1′-{[3-Methyl-4′-(trifluoromethyl)biphenyl-4-yl]carbonyl}-1,3′-biazetidin-3-yl)-1,3-thiazole-2-carboxamide]			29		185
Cc1c(C(=O)N2CC(N3CC(NC(=O)c4nccs4)C3)C2)sc2cc(Br)ccc12 [Cpd 65, N-{1′-[(6-Bromo-3-methyl-1-benzothiophen-2-yl)carbonyl]-1,3′-biazetidin-3-yl}-1,3-thiazole-2-carboxamide]			< 5		324

Further lines, results first:

activity at 10 µM [1] [%]	IC50 [2] [nM]	IC50 [3] [nM]	Kd [4] [nM]	activity at 1 µM [1] [%]	SMILES
		< 5		399	Cc1c(C(=O)N2CC(N3CC(NC(=O)c4nccs4)C3)C2)sc2cc(-c3ccccc3)ccc12 [Cpd 66, N-{1′-[(3-Methyl-6-phenyl-1-benzothiophen-2-yl)carbonyl]-1,3′-biazetidin-3-yl}-1,3-thiazole-2-carboxamide]
600	8	< 5			O=C(c1ccc2cc(-c3ccccc3)ccc2c1)N1CC(N2CC(N3Cc4ccccc4C3=O)C2)C1 [Cpd 69, 2-{1′-[(6-Phenylnaphthalen-2-yl)carbonyl]-1,3′-biazetidin-3-yl}-2,3-dihydro-1H-isoindol-1-one]
518	< 5	< 5			O=C(c1ccc2c(-c3ccccc3)cccc2c1)N1CC(N2CC(N3Cc4ccccc4C3=O)C2)C1 [Cpd 97, 2-{1′-[(5-Phenylnaphthalen-2-yl)carbonyl]-1,3′-biazetidin-3-yl}-2,3-dihydro-1H-isoindol-1-one]
613	< 5	< 5			O=C(c1cc2ccc(-c3ccccc3)cc2s1)N1CC(N2CC(N3Cc4ccccc4C3=O)C2)C1 [Cpd 98, 2-{1′-[(6-Phenyl-1-benzothiophen-2-yl)carbonyl]-1,3′-biazetidin-3-yl}-2,3-dihydro-1H-isoindol-1-one]
		66	215		Cc1cc(-c2cccc(C(F)(F)F)c2)ccc1C(=O)N1CC(N2CC(N3Cc4scnc4C3=O)C2)C1 [Cpd 104, 5-(1′-{[3-Methyl-3′-(trifluoromethyl)biphenyl-4-yl]carbonyl}-1,3′-biazetidin-3-yl)-5,6-dihydro-4H-pyrrolo[3,4-d][1,3]thiazol-4-one]
		887	3640		Cc1cc(-c2ccc(C(F)(F)F)cc2)ccc1C(=O)N1CC(N2CC(N3Cc4scnc4C3=O)C2)C1 [Cpd 105, 5-(1′-{[3-Methyl-4′-(trifluoromethyl)biphenyl-4-yl]carbonyl}-1,3′-biazetidin-3-yl)-5,6-dihydro-4H-pyrrolo[3,4-d][1,3]thiazol-4-one]
		< 5		414	O=C(c1ccc2c(ccn2-c2ccc(C(F)(F)F)cc2)c1)N1CC(N2CC(N3Cc4scnc4C3=O)C2)C1 [Cpd 106, 5-[1′-({1-[4-(Trifluoromethyl)phenyl]-1H-indol-5-yl}carbonyl)-1,3′-biazetidin-3-yl]-5,6-dihydro-4H-pyrrolo[3,4-d][1,3]thiazol-4-one]
